Assay results published in article PMC7861629 (Bosnian Journal of Basic Medical Sciences, 2021).

Key:
[1] = rat
Procedure: The weight of the pieces applied was 25.2 ± 1.6 mg (mean ± standard deviation [SD]) and the amount of vancomycin in the collagen sponge pieces was 11.2 ± 0.7 mg (mean ± SD). For placebo group (n = 6), a 10 mm × 10 mm piece of placebo-containing collagen sponge was applied. The pocket on the sham surgery side was sutured with no sponge so as to provide for a control.
We administered 7.5 mg of vancomycin intraperitoneally to rats accompanied by a similar induction of s.c. infection; we measured the plasma levels in the same way as we did for the active arm.
Blood samples (volume, 0.5 mL) for determination of vancomycin and haptoglobin levels were drawn from the jugular vein into a 0.5 mL heparinized syringe under isoflurane anesthesia. Samples were drawn from three animals in vancomycin group 0.5, 1, 2, and 4 h following inoculation on the 1st day to determine vancomycin and haptoglobin levels. Samples were also taken from all animals in placebo group on the 1st day 2 h following inoculation to determine haptoglobin level only. Samples from four animals in vancomycin group and two animals in placebo group were drawn on the 1st, 2nd, and 3rd day following inoculation. The final sample was drawn intracardially upon termination on day 4 following inoculation. The samples were centrifuged (12,000 rpm, 2 min) and the samples from days 1, 2, and 3 following inoculation were frozen at -20°C until analyzed. Vancomycin concentration in the blood as well as haptoglobin level (rat acute phase marker) were determined using a nephelometric method (Beckman Coulter, Indianapolis, IN, USA).

[2] = children, 1000 mg vancomycin powder during spinal deformity surgery; cited from earlier work
Procedure: Following the application of 1000 mg of vancomycin powder during sur ...

Q: With `CN[C@H](CC(C)C)C(=O)N[C@H]1C(=O)N[C@@H](CC(N)=O)C(=O)N[C@H]2C(=O)N[C@H]3C(=O)N[C@H](C(=O)N[C@H](C(=O)O)c4cc(O)cc(O)c4-c4cc3ccc4O)[C@H](O)c3ccc(c(Cl)c3)Oc3cc2cc(c3O[C@@H]2O[C@H](CO)[C@@H](O)[C@H](O)[C@H]2O[C@H]2C[C@](C)(N)[C@H](O)[C@H](C)O2)Oc2ccc(cc2Cl)[C@H]1O` [vancomycin] as the molecule, how does the AUC ([1]; 7.5 mg vancomycin i.p., calculated from obtained levels) read?
A: 87.71 µg·h/mL

Q: And the “vancomycin level after 24 h” value ([1]; 7.5 mg vancomycin i.p., detected in one animal only, nephelometric method)?
A: 0.2 mg/L

Q: What about the “expected AUC after 11.2 mg” value ([1]; i.p., extrapolated from 7.5 mg dose to the sponge dose) of the same molecule?
A: 130.9 µg·h/mL

Q: And the “vancomycin level in fluid drained by subfascial drain, day 0” value [2]?
A: 403 mg/L

Q: What about the “vancomycin level in fluid drained by subfascial drain, day 1” value [2] of the same molecule?
A: 251 mg/L

Q: What about the “vancomycin level in fluid drained by subfascial drain, day 2” value [2] of the same molecule?
A: 115 mg/L

Q: And the “vancomycin level in plasma, day 0” value [2]?
A: 2.5 mg/L

Q: What about the “vancomycin level in plasma, day 1” value [2] of the same molecule?
A: 1.9 mg/L

Q: What about the “vancomycin level in plasma, day 2” value [2] of the same molecule?
A: 1.1 mg/L
